According to patent US9476099B2 (TRUSTEES OF DARTMOUTH COLLEGE, priority 2012, dated 2016):
Several values for one entry are separate records, joined by “and”; a condition that tells them apart may be missing. Equal entries are not always repeated.

System: NT2/D1-R1 control and DNMT3B knockdown cells
Test: Genome-wide expression analysis with PAM clusters, control and DNMT3B knockdown cells (Tables 8-14)
Details: sh-Ctrl + aza; 10 nM decitabine, 3 days

Nc1ncn([C@H]2C[C@H](O)[C@@H](CO)O2)c(=O)n1 [aza]
ADAMTSL2 NM_014694 expression Mean: 295.667 | ADM NM_001124 expression Mean: 937.101 | AFMID NM_0010109 expression Mean: 303.389 | AHNAK NM_001620 expression Mean: 522.882 | ANAPC13 NM_015391 expression Mean: 549.873 | ANXA1 NM_000700 expression Mean: 1242.05 | ANXA2 NM_0010028 expression Mean: 3575.79 | AW972815 expression Mean: 1125.31 | BAG3 NM_004281 expression Mean: 1275 | BCL11A NM_022893 expression Mean: 399.892 | BIRC5 NM_001168 expression Mean: 873.507 | BTG2 NM_006763 expression Mean: 474.998 | C9orf6 NM_017832 expression Mean: 333.034 | C10orf2 NM_021830 expression Mean: 515.45 | C10orf58 NM_032333 expression Mean: 983.117 | C16orf93 NM_0010149 expression Mean: 392.581 | CA2 NM_000067 expression Mean: 678.212 | CATSPER2 NM_172097 expression Mean: 1806.2 | CAV1 NM_001753 expression Mean: 740.14 | CCND1 NM_053056 expression Mean: 4666.94 | CDKN1A NM_000389 expression Mean: 1938.97 | CDX1 NM_001804 expression Mean: 802.577 | CEACAM1 NM_0010249 expression Mean: 229.793 | CIRH1A NM_032830 expression Mean: 1971.98 | CLCF1 NM_013246 expression Mean: 340.544 | CLDN10 NM_006984 expression Mean: 407.272 | CNN3 NM_001839 expression Mean: 1086.56 | COL7A1 NM_000094 expression Mean: 1054.31 | COL17A1 NM_000494 expression Mean: 521.166 | CRABP2 NM_001878 expression Mean: 2128.79 | CRIPT NM_014171 expression Mean: 613.112 | CTNNB1 NM_0010982 expression Mean: 342.941 | CUEDC1 NM_017949 expression Mean: 525.909 | CXCL14 NM_004887 expression Mean: 366.998 | CXXC1 NM_014593 expression Mean: 1743.77 | CXorf40A NM_178124 expression Mean: 324.823 | CYR61 NM_001554 expression Mean: 634.193 | DDX51 NM_175066 expression Mean: 1671.08 | DIMT1L NM_014473 expression Mean: 893.36 | DUSP5 NM_004419 expression Mean: 1627.42 | EBI3 NM_005755 expression Mean: 650.267 | EIF2C2 NM_012154 expression Mean: 794.459 | ELF3 NM_004433 expression Mean: 306.008 | ELF4 NM_001421 expression Mean: 721.011 | EMILIN2 NM_032048 expression Mean: 650.943 | EOMES NM_005442 expression Mean: 387.137 | FAM53C NM_016605 expression Mean: 2860.96 | FAM123B NM_152424 expression Mean: 1182.82 | FLJ40504 NM_173624 expression Mean: 3003.39 | FOXO3 NM_201559 expression Mean: 639.391 | GAD1 NM_000817 expression Mean: 287.008 | GAD1 NM_013445 expression Mean: 372.485 | GALNAC4S-6 NM_015892 expression Mean: 704.001 | GEMIN4 NM_015721 expression Mean: 1411.28 | GLIPR2 NM_022343 expression Mean: 792.16 | GNL3L NM_019067 expression Mean: 392.011 | GNL3 NM_206826 expression Mean: 1332.63 | GPATCH4 NM_182679 expression Mean: 1117.44 | GPER NM_0010399 expression Mean: 305.922 | GPR56 NM_201524 expression Mean: 378.312 | GPR56 NM_201525 expression Mean: 392.608 | GPR177 NM_0010022 expression Mean: 251.287 and 391.197 | GPR177 NM_024911 expression Mean: 515.533 | GTF3C6 NM_138408 expression Mean: 503.701 | H2AFY NM_004893 expression Mean: 2387.37 | HARS NM_002109 expression Mean: 1887.22 | HCLS1 NM_005335 expression Mean: 319.822 | HES2 NM_019089 expression Mean: 310.888 | HSPA1A NM_005346 expression Mean: 699.362 | HSPA8 NM_006597 expression Mean: 3448.31 | HSPA8 NM_153201 expression Mean: 5257.42 | HSPH1 NM_006644 expression Mean: 565.151 | ID3 NM_002167 expression Mean: 3392.56 | IER3 NM_003897 expression Mean: 835.676 | IL2RB NM_000878 expression Mean: 274.617 | ITPRIP NM_033397 expression Mean: 346.452 | JTV1 NM_006303 expression Mean: 1876.43 | KAT2A NM_021078 expression Mean: 1965.54 | KIAA0101 NM_014736 expression Mean: 468.29 | KRT8 NM_002273 expression Mean: 3394.59 | LEFTY2 NM_003240 expression Mean: 1161.57
